ChEMBL document CHEMBL1201862, “PubChem BioAssay data set” (2004)
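A five-concentration, 48-hour dose response in 96-well plates underlies each endpoint, interpolated linearly between surrounding concentrations. Here, GI50 denotes the concentration required for 50% inhibition of growth.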 Activity calls are given as the source filed them. No stated cut-off is given here; in the data, active = GI50 up to about 1.1 µM and inactive = higher.

Experiments:
Assay in all cases: NCI tumour cell line growth inhibition, 48 h
[1] = tested on: 786-0
[2] = tested on: A498
[3] = tested on: A549
[4] = tested on: ACHN
[5] = tested on: CAKI-1
[6] = tested on: CCRF-CEM
[7] = tested on: COLO 205
[8] = tested on: DLD-1
[9] = tested on: DMS-114
[10] = tested on: DMS-273
[11] = tested on: EKVX
[12] = tested on: HCC 2998
[13] = tested on: HCT-116
[14] = tested on: HCT-15
[15] = tested on: HL-60
[16] = tested on: HOP-18
[17] = tested on: HOP-62
[18] = tested on: HOP-92
[19] = tested on: HT-29
[20] = tested on: IGROV-1
[21] = tested on: K562
[22] = tested on: KM-20L2
[23] = tested on: KM12
[24] = tested on: LOX IMVI
[25] = tested on: LXFL 529
[26] = tested on: M14
[27] = tested on: M19-MEL
[28] = tested on: MOLT-4
[29] = tested on: Malme-3M
[30] = tested on: NCI-H226
[31] = tested on: NCI-H23
[32] = tested on: NCI-H460
[33] = tested on: NCI-H522
[34] = tested on: OVCAR-3
[35] = tested on: OVCAR-4
[36] = tested on: OVCAR-5
[37] = tested on: OVCAR-8
[38] = tested on: RPMI-8226
[39] = tested on: RXF 393
[40] = tested on: SF-268
[41] = tested on: SF-295
[42] = tested on: SF-539
[43] = tested on: SK-MEL-28
[44] = tested on: SK-MEL-2
[45] = tested on: SK-MEL-5
[46] = tested on: SK-OV-3
[47] = tested on: SN12C
[48] = tested on: SNB-19
[49] = tested on: SNB-75
[50] = tested on: SNB-78
[51] = tested on: SR
[52] = tested on: SW-620
[53] = tested on: TK-10
[54] = tested on: U-251
[55] = tested on: UACC-257
[56] = tested on: UACC-62
[57] = tested on: UO-31
[58] = tested on: XF498
[59] = tested on: RXF 631

In the case of `Nc1ncnc2c1sc(=S)n2-c1ccccc1`, the GI50 [1] is reported as > 100 µM (inactive), the GI50 [2] is reported as 82.8 µM (inactive) and the GI50 [3] is reported as > 100 µM (inactive). The GI50 [4] was > 100 µM (inactive), the GI50 [5] was > 100 µM (inactive) and the GI50 [6] was > 100 µM (inactive). The GI50 [7] was > 100 µM (inactive), the GI50 [8] was > 100 µM (inactive) and the GI50 [9] was > 100 µM (inactive). For the same compound, the GI50 [10] was > 100 µM (inactive), the GI50 [11] was > 100 µM (inactive) and the GI50 [12] was > 100 µM (inactive). The GI50 [13] was > 100 µM (inactive), the GI50 [14] was 96.8 µM and the GI50 [15] was > 100 µM (inactive). The GI50 [16] was > 100 µM (inactive), the GI50 [17] was > 100 µM (inactive) and the GI50 [18] was 40.8 µM (inactive). The GI50 [19] was > 100 µM (inactive), the GI50 [20] was > 100 µM (inactive) and the GI50 [21] was > 100 µM (inactive). The GI50 [22] was > 100 µM (inactive), the GI50 [23] was > 100 µM (inactive) and the GI50 [24] was > 100 µM (inactive). For the same compound, the GI50 [25] was > 100 µM (inactive), the GI50 [26] was > 100 µM (inactive) and the GI50 [27] was > 100 µM (inactive). The GI50 [28] was > 100 µM (inactive), the GI50 [29] was > 100 µM (inactive) and the GI50 [30] was > 100 µM (inactive). The GI50 [31] was > 100 µM (inactive), the GI50 [32] was > 100 µM (inactive) and the GI50 [33] was > 100 µM (inactive). For the same compound, the GI50 [34] was > 100 µM (inactive), the GI50 [35] was > 100 µM (inactive) and the GI50 [36] was > 100 µM (inactive). For the same compound, the GI50 [37] was > 100 µM (inactive), the GI50 [38] was > 100 µM (inactive) and the GI50 [39] was > 100 µM (inactive). The GI50 [40] was > 100 µM (inactive), the GI50 [41] was > 100 µM (inactive) and the GI50 [42] was > 100 µM (inactive). For the same compound, the GI50 [43] was > 100 µM (inactive), the GI50 [44] was > 100 µM (inactive) and the GI50 [45] was > 100 µM (inactive). For the same compound, the GI50 [46] was > 100 µM (inactive), the GI50 [47] was > 100 µM (inactive) and the GI50 [48] was > 100 µM (inactive). The GI50 [49] was > 100 µM (inactive), the GI50 [50] was > 100 µM (inactive) and the GI50 [51] was > 100 µM (inactive). The GI50 [52] was > 100 µM (inactive), the GI50 [53] was > 100 µM (inactive) and the GI50 [54] was > 100 µM (inactive). The GI50 [55] was > 100 µM (inactive), the GI50 [56] was > 100 µM (inactive) and the GI50 [57] was 89.3 µM (inactive). For the same compound, the GI50 [58] was > 100 µM (inactive).

For `CCOc1ccccc1N1C(=O)C(=O)C(c2nc3ccccc3s2)C(=O)C1=O`, the GI50 [1] was 5.36 µM (inactive), the GI50 [2] was 16.6 µM (inactive) and the GI50 [3] was 20 µM (inactive). For the same compound, the GI50 [4] was 5.86 µM (inactive), the GI50 [5] was 38.5 µM (inactive) and the GI50 [7] was > 100 µM (inactive). For the same compound, the GI50 [8] was > 100 µM (inactive), the GI50 [9] was > 100 µM (inactive) and the GI50 [10] was > 100 µM (inactive). The GI50 [11] was > 100 µM (inactive), the GI50 [12] was > 100 µM (inactive) and the GI50 [13] was 35.8 µM (inactive). The GI50 [14] was 76.9 µM, the GI50 [16] was 8.22 µM (inactive) and the GI50 [17] was 46.8 µM (inactive). The GI50 [18] was 36.2 µM (inactive), the GI50 [19] was 39.8 µM (inactive) and the GI50 [20] was 19.3 µM (inactive). The GI50 [22] was > 100 µM (inactive), the GI50 [23] was 98.2 µM (inactive) and the GI50 [24] was 55.5 µM (inactive). The GI50 [25] was 35.5 µM (inactive), the GI50 [26] was > 100 µM (inactive) and the GI50 [27] was 69.5 µM (inactive). For the same compound, the GI50 [29] was 33.8 µM (inactive), the GI50 [30] was 69.5 µM (inactive) and the GI50 [31] was > 100 µM (inactive). The GI50 [32] was 26.4 µM (inactive), the GI50 [34] was 17.4 µM (inactive) and the GI50 [35] was 3.48 µM (inactive). For the same compound, the GI50 [36] was > 100 µM (inactive), the GI50 [37] was 41.5 µM (inactive) and the GI50 [38] was > 100 µM (inactive). The GI50 [39] was > 100 µM (inactive), the GI50 [40] was 82.6 µM (inactive) and the GI50 [41] was 41.7 µM (inactive). For the same compound, the GI50 [42] was > 100 µM (inactive), the GI50 [43] was > 100 µM (inactive) and the GI50 [44] was > 100 µM (inactive). The GI50 [46] was 30.9 µM (inactive), the GI50 [47] was 79.4 µM (inactive) and the GI50 [48] was 56.5 µM (inactive). For the same compound, the GI50 [49] was 23.8 µM (inactive), the GI50 [50] was > 100 µM (inactive) and the GI50 [52] was 58.9 µM (inactive). The GI50 [53] was 24.5 µM (inactive), the GI50 [54] was 49.3 µM (inactive) and the GI50 [55] was > 100 µM (inactive). The GI50 [56] was > 100 µM (inactive), the GI50 [57] was 34.7 µM (inactive) and the GI50 [58] was > 100 µM (inactive).

For `O=c1/c(=C/c2ccccc2O)sc2nc3ccccc3n12`, the GI50 [1] was 53.2 µM (inactive), the GI50 [2] was 49.4 µM (inactive) and the GI50 [3] was 41.8 µM (inactive). The GI50 [4] was 45.6 µM (inactive), the GI50 [5] was 34.6 µM (inactive) and the GI50 [6] was 16.3 µM (inactive). The GI50 [8] was 29.9 µM (inactive), the GI50 [9] was 19.7 µM (inactive) and the GI50 [10] was 82.4 µM (inactive). The GI50 [11] was 15.3 µM (inactive), the GI50 [12] was 55.8 µM (inactive) and the GI50 [13] was 47.3 µM (inactive). For the same compound, the GI50 [14] was 21.6 µM, the GI50 [15] was 4.9 µM (inactive) and the GI50 [18] was 24.4 µM (inactive). For the same compound, the GI50 [19] was 43.2 µM (inactive), the GI50 [20] was 16.9 µM (inactive) and the GI50 [21] was 33.6 µM (inactive). For the same compound, the GI50 [22] was 84.1 µM (inactive), the GI50 [24] was 35.5 µM (inactive) and the GI50 [25] was 31.3 µM (inactive). For the same compound, the GI50 [26] was 47.9 µM (inactive), the GI50 [27] was 41.2 µM (inactive) and the GI50 [28] was 18.1 µM (inactive). For the same compound, the GI50 [29] was 32.2 µM (inactive), the GI50 [30] was 52.1 µM (inactive) and the GI50 [31] was 38.7 µM (inactive). For the same compound, the GI50 [32] was 35 µM (inactive), the GI50 [34] was 29.7 µM (inactive) and the GI50 [35] was 80.4 µM (inactive). The GI50 [36] was > 100 µM (inactive), the GI50 [37] was 45 µM (inactive) and the GI50 [38] was 21.2 µM (inactive). The GI50 [39] was 21.9 µM (inactive), the GI50 [59] was 43.7 µM (inactive) and the GI50 [40] was 16.6 µM (inactive). For the same compound, the GI50 [41] was 34.3 µM (inactive), the GI50 [42] was 35.5 µM (inactive) and the GI50 [43] was 23.6 µM (inactive). The GI50 [44] was 32.3 µM (inactive), the GI50 [45] was 30.7 µM (inactive) and the GI50 [47] was 33.9 µM (inactive). For the same compound, the GI50 [48] was 80.7 µM (inactive), the GI50 [49] was 84.9 µM (inactive) and the GI50 [50] was 43.2 µM (inactive). The GI50 [51] was 27.4 µM (inactive), the GI50 [52] was 40.5 µM (inactive) and the GI50 [53] was > 100 µM (inactive). The GI50 [55] was 62.7 µM (inactive), the GI50 [56] was 23.1 µM (inactive) and the GI50 [57] was 46.8 µM (inactive).
